Patent US20060154255A1, “Blood and tissue sample assessment of mitochondrial function and biochemistry as a tool for selection for feed efficiency and other production parameters” (priority 2002, published 2006)

Columns and labels:
[1] = system: breast muscle mitochondria; assay: H2O2 production (electron leak) in breast muscle mitochondria with respiratory chain inhibitors; format: biochemical, broilers
leg muscle mitochondria = assay: H2O2 production (electron leak) in leg muscle mitochondria with respiratory chain inhibitors; format: biochemical, broilers; conditions: low FE leg muscle mitochondria; versus no inhibitor (NI); rotenone 10 μM; P<0.07
[2] = breast muscle mitochondria, inhibition at Complex II or Q cycle of Complex III, malonate 7 μM, TTFA 8 μM, myxothiazol 13 μM
[3] = low FE breast muscle mitochondria, versus no inhibitor (NI), rotenone 10 μM, antimycin A 13 μM

## O=C(CC(=O)C(F)(F)F)c1cccs1 [TTFA, 4,4,4-trifluoro-1-[2-thienyl]-1,3-butanedione]
[1]; [2]
  H2O2 production: No differences were observed

## O=C(O)CC(=O)O [malonate]
[1]; [2]
  H2O2 production: No differences were observed

## CO/C(=C/C(N)=O)[C@H](C)[C@H](/C=C/c1csc(-c2csc([C@@H](C)/C=C/C=C/C(C)C)n2)n1)OC [myxothiazol]
[1]; [2]
  H2O2 production: No differences were observed

## C=C(C)[C@H]1Cc2c(ccc3c2O[C@@H]2COc4cc(OC)c(OC)cc4[C@@H]2C3=O)O1 [rotenone]
[1]; [3]
  H2O2 production: raised H2O2 production
Leg muscle mitochondria
  H2O2 production: an elevation

## antimycin A
[1]; [3]
  H2O2 production: raised H2O2 production
